A melting point compilation (Tetko et al.; mined from patent text by program, amines drawn as free bases though some values may be those of a salt)

First: Cc1cc(Cn2c(-c3ccccc3)nc(Cl)c2CC(=O)O)ccc1O
Second: O=C(O)Cc1c(C(=O)c2cccc(Br)c2)[nH]c2cc(Cl)ccc12
The melting point of the first is lower: 190 to 193 °C for the first, 215 to 218 °C for the second.

First: O=C(Nc1ccccc1Br)OCc1cn(-c2cc3cc(C(=O)O)c(=O)[nH]c3cc2C(F)(F)F)cn1
Second: NNC(=O)c1ccccc1Nc1cccc(C(F)(F)F)c1
The melting point of the first is higher: 145 to 147 °C for the first, 134 to 135 °C for the second.

Compared with `CC(=O)Nc1ccc(C(C)(C)C(=O)O)cc1`, `CN(C)C(=O)Nc1cccc(C(=O)c2ccccc2)c1` is lower in melting point: 170 to 171 °C for the first, 104 to 105 °C for the second.

First: CSc1nc(O)cc(=O)n1C
Second: Cn1c(-c2cccnc2)cc(=O)n(C)c1=O
The melting point of the first is higher: 198 °C for the first, 120 to 122 °C for the second.

Compared with `CCOC(=O)C1=C(COCC(C)(O)Cn2cnnc2)NC(C)=C(C(=O)OC)C1c1cccc(Cl)c1Cl` (stereo not drawn), `COC(=O)C1=C(C)NC(C)=C(C(=O)NC(C)C)C1c1ccccc1[N+](=O)[O-]` (stereo not drawn) is higher in melting point: 172 to 176 °C for the first, 203 to 206 °C for the second.

Compared with `CN(C)C(=O)C=CC(=O)N(C)C`, `CN(C)C(=O)c1ccccc1CS(N)(=O)=O` is higher in melting point: 130 to 131 °C for the first, 149 to 154 °C for the second.

First: COC(=O)CCCCCNC(=O)C(CSC(C)=O)Cc1ccccc1 (stereo not drawn)
Second: COc1c(C(O)CNC(C)(C)Cc2ccccc2)ccc(O)c1O (stereo not drawn)
The melting point of the first is lower: 50 to 54 °C for the first, 149 to 150 °C for the second.

Compared with `CSC1(C)C(=O)Nc2ccc(C3=NNC(=O)SC3C)cc21` (stereo not drawn), `CC(C)n1nc(-c2sc(N)nc2-c2cccc(F)c2)ccc1=O` is lower in melting point: 250 °C for the first, 237 to 238 °C for the second.

Compared with `O=c1[nH][nH]c(=O)c2c(O)c3c(Cl)c(Cl)c(Cl)cc3nc12`, `CCOC(=O)c1cnc2cc(Br)c(F)cc2c1O` is higher in melting point: 123 to 124 °C for the first, over 280 °C for the second.

First: ONCc1cccc(I)c1
Second: O=C(Nc1ccccc1)C(CBr)CBr
The melting point of the first is lower: 63 to 70 °C for the first, 143 to 144 °C for the second.

First: NS(=O)(=O)c1ccc(-c2cccc(-c3nc(-c4ccc(C(F)(F)F)cc4)cc(C(F)(F)F)n3)c2)s1
Second: NC(=O)c1nc(-c2cccc(O)c2)nc2c1[nH]c(=O)n2-c1ccc(C(F)(F)F)cc1
The melting point of the first is lower: 204 °C for the first, 360 to 364 °C for the second.

Compared with `CCCc1ccn(-c2ccc(S(C)(=O)=O)cc2)c1-c1ccc(F)cc1`, `O=C(O)CCCc1cc2nc(Cl)ccc2n1S(=O)(=O)c1ccc(-c2cnco2)cc1` is higher in melting point: 116 to 117 °C for the first, 169 to 176 °C for the second.

Going from `NC(=NO)c1ccc(O)c(O)c1` to `O=C(O)c1cccc2c(Br)c(O)ccc12`, the melting point rises from 193 °C to over 225 °C.

First: NC(=O)c1cc([N+](=O)[O-])cnc1C(Br)Br
Second: COc1cc(N)c([N+](=O)[O-])cc1C(=O)O
The melting point of the first is lower: 156 to 158 °C for the first, 254 °C for the second.

Compared with `CNC(=O)c1c(NC(=O)COC)c(OC)c(C(=O)NC)c(NC(=O)COC)c1OC`, `COc1cc(C(=O)CCc2ccccc2)c2c(c1OC)C(=O)CC2` is lower in melting point: 275 to 276 °C for the first, 144 to 146 °C for the second.

Compared with `CCOC(=O)CC(=O)c1cc(F)c(F)c(F)c1F`, `CCOC(=O)c1cn(C2Cc3cc(F)ccc3C2=O)c(C(=O)OCC)n1` (stereo not drawn) is higher in melting point: 47 to 49 °C for the first, 138 °C for the second.

Compared with `O=C(Oc1ccccc1)Oc1ccccc1C(=O)NC(Oc1ccccc1)C(Cl)(Cl)Cl` (stereo not drawn), `CCOC(=O)COc1ccccc1C(=O)Nc1ccccc1Sc1ccc(-c2nnn[nH]2)cc1` is higher in melting point: 110 to 111 °C for the first, 155 to 157 °C for the second.

First: O=C(NC[C@H]1O[C@H]1c1ccccc1)c1ccc(NC(=O)C(F)(F)F)cc1 (racemic)
Second: Cc1cccc(/C=C/C(=O)Nc2cccc(NC(=N)c3ccccc3)c2)c1
The melting point of the first is higher: 190 °C for the first, 179 to 180 °C for the second.

Compared with `[N-]=[N+]=NCCc1cccc2[nH]cc(S(=O)(=O)c3ccccc3)c12`, `CC(=O)c1ccc(Cl)c(S(=O)(=O)Nc2ccccc2)c1` is lower in melting point: 143 °C for the first, 142 °C for the second.

Compared with `O=C(O)c1ccc(Cl)cc1Sc1ccc(F)cc1`, `Cn1c(C(F)(F)F)cc(=O)n(-c2ccc(Cl)c(C(=O)O)c2)c1=O` is higher in melting point: 204 to 213 °C for the first, 235 to 236 °C for the second.

First: COc1cc(N2CCN(Cc3ccccc3)CC2)c2ncccc2c1Cl
Second: COC(=O)CCn1c(=O)n(CCN2CCN(c3cccc(OC)c3)CC2)c(=O)c2cscc21
The melting point of the first is higher: 138 to 140 °C for the first, 136 to 137 °C for the second.

First: c1ccc(-n2c(-c3ccc(-c4ccc(-c5nc6c7ccccc7c7ccccc7c6n5-c5ccccc5)cc4)cc3)nc3c4ccccc4c4ccccc4c32)cc1
Second: O=C(O)CCc1cn(Cc2cc(OCc3csc(-c4ccccc4)n3)cc(OCc3csc(-c4ccccc4)n3)c2)cc1-c1ccccc1
The melting point of the first is higher: 402 °C for the first, 78 to 79 °C for the second.

First: COc1ccc(S(=O)(=O)C(CC=C(C)C)(Cc2ccc(OCCN3CCOCC3)cc2)C(=O)NO)cc1 (stereo not drawn)
Second: CC(COc1ccc(CC2SC(=O)NC2=O)cc1)NCC(O)COc1ccccc1 (stereo not drawn)
The melting point of the first is higher: 92 °C for the first, 64 to 68 °C for the second.

First: COCCCCCCCCCCCC(=O)O
Second: COC(CCl)NC(=O)c1ccccc1 (stereo not drawn)
The melting point of the first is lower: 45 to 47 °C for the first, 76.9 to 77.7 °C for the second.

Compared with `CNC(=C[N+](=O)[O-])NCc1ccc2c(c1)Nc1nccnc1S2`, `Cc1ccc(CC2CCN(C(=O)C(=O)Nc3ccc4c(c3)CS(=O)(=O)N4)CC2)cc1` is lower in melting point: over 265 °C for the first, 186 °C for the second.

`Cc1cc(C(C)(C)C)c(O)cc1[N+](=O)[O-]` and `CCN1CCN(C(=O)c2ccc([N+](=O)[O-])cc2C)CC1` cannot be ordered by melting point: 96 to 98 °C for the first, 96 to 99 °C for the second.

First: CCSC(C#N)C1=NCCc2cc(OC)c(OC)cc21 (stereo not drawn)
Second: CC(C)C(C)OC(=S)c1ccc(N)cc1Cl (stereo not drawn)
The melting point of the first is higher: 113 to 115 °C for the first, 43 to 46 °C for the second.

First: CN1CCC(Oc2c(F)cc3c(=O)c(C(=O)O)cn(C4CC4)c3c2F)CC1
Second: CN1CCC(OC2c3ccccc3CCn3cc(-c4ccc(Br)cc4)nc32)CC1 (stereo not drawn)
The melting point of the first is higher: 166 to 167 °C for the first, 142 °C for the second.

First: Cc1cnc2nc(SCc3ccccc3)nn2c1
Second: c1ccc(CN(Cc2ccccc2)c2ccc3sccc3c2)cc1
The melting point of the first is higher: 254 to 256 °C for the first, 114 to 117 °C for the second.

Compared with `CNC(=O)ON=C1SC(C)C(=O)N1N(C)C` (stereo not drawn), `CC(=O)Nc1nc(C)c(CCCl)s1` is higher in melting point: 110 to 113 °C for the first, 172 to 174 °C for the second.

First: CCOCc1nc2c(N)nc3ccccc3c2n1CC(C)(C)CS(=O)(=O)NC
Second: CC(C)c1nc(C(N)(C(F)(F)F)C(F)(F)F)[nH]c1-c1ccc(S(C)(=O)=O)cc1
The melting point of the first is higher: 161 to 163 °C for the first, 155 to 157 °C for the second.

Compared with `CCNC(=S)N1CCc2[nH]cnc2C1`, `N=C(N)N1CCc2[nH]cnc2C1` is higher in melting point: 185 °C for the first, 310 °C for the second.

First: N#CC1=C(C2=CCNCC2)Nc2n[nH]cc2C1c1cccc(C#N)c1Br (stereo not drawn)
Second: Cn1cc(C2=C(c3c4n(c5ccccc35)CCC4)C(=O)OC2=O)c2ccccc21
The melting point of the first is higher: 226 °C for the first, 125 to 130 °C for the second.

First: CCC(=C(c1ccccc1)c1ccc(C=CC(=O)O)cc1)c1ccccc1
Second: O=C1CC(c2cccc(-c3nc(CO)co3)c2)=Nc2ccc(-n3cccc3)cc2N1
The melting point of the first is lower: 148 to 150 °C for the first, 240 to 242 °C for the second.

Compared with `C/C=C/CC(=O)N[C@H]1CC[C@H](CCN2CCN(c3nccc4c3OCC4)CC2)CC1`, `c1c2c(nc3c1CCCCC3)CCCCC2` is higher in melting point: 170 °C for the first, 179 °C for the second.

First: C=CCC(CC)(CC=C)C(=O)O[C@H]1C[C@H](O)C=C2C=C[C@H](C)[C@H](CC[C@@H]3C[C@@H](O)CC(=O)O3)[C@H]21
Second: O=c1ccccn1CC1(O)CCN(Cc2ccc(F)cc2)CC1
The melting point of the first is lower: 99 to 100 °C for the first, 154 to 156 °C for the second.

With `CC(C)c1ccccc1Sc1c(O)cc(-c2ccc3c(c2)OCCO3)oc1=O` the melting point was 246 to 248 °C.
